Data taken from patent US8354416B2 (Glaxo Group Limited, priority 2005, dated 2013).
“Also recorded” adds a separate entry of the source.

What was measured:
Recombinant human p38α = biological target: T1, Recombinant human p38α (Homo sapiens, UniProt Q16539); assay: Time-resolved fluorescence resonance energy transfer (TR-FRET) kinase assay (standard or low volume); type: biochemical; details: no IC50 at a concentration of less than 16 uM
T1 construct: His; made in house
Method: Time-Resolved Fluorescence Resonance Energy Transfer Kinase Standard Assay
Recombinant human p38α was expressed as a His-tagged protein. To activate this protein, 3 μM unactivated p38α was incubated in 200 mM Hepes pH 7.4, 625 mM NaCl, 1 mM DTT with 27 nM active MKK6 (Upstate), 1 mM ATP and 10 mM MgCl2 The activity of the MKK6-activated p38α was assessed using a time-resolved fluorescence resonance energy transfer (TR-FRET) assay.
Biotinylated-GST-ATF2 (residues 19-96, 400 nM final), ATP ([…]) and MgCl2 (5 mM final) in assay buffer (40 mM HEPES pH 7.4, 1 mM DTT) were added to wells containing 1 ul of various concentrations of compound or DMSO vehicle (3% final) in NUNC 384 well black plate. […] The degree of phosphorylation of GST-ATF2 was measured using a Packard Discovery plate reader (Perkin-Elmer Life Sciences, Pangbourne, UK) as a ratio of specific 665 nm energy transfer signal to reference europium 620 nm signal.
Time-Resolved Fluorescence Resonance Energy Transfer Kinase Low Volume Assay
Recombinant human p38α was expressed as a His-tagged protein. To activate this protein, 3 μM unactivated p38α was incubated in 200 mM Hepes pH7.4, 625 mM NaCl, 1 mM DTT with 27 nM active MKK6 (Upstate), 1 mM ATP and 10 mM MgCl2 The activity of the MKK6-activated p38α was assessed using a time-resolved fluorescence resonance energy transfer (TR-FRET) assay. […]

[1] = system: influx of neutrophils to the lung in LPS-challenged rats; assay: Rat LPS neutrophilia model; type: in vivo; details: intratracheal, LPS aerosol 100 ug/ml, in at least one of the range of conditions tested, significance p<0.05
Procedure, shortened: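 Compound given intratracheally (200 ul suspension, or dry powder blend) to isoflurane-anesthetized rats 15 min–24 hours before 15 min exposure to LPS aerosol (100 ug/ml). Four hours later, bronchoalveolar lavage cells were counted differentially. Data are % inhibition of neutrophils versus no-compound controls at a given concentration and pretreat time.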

[2] = system: TNF-stimulated IL8 production by human neutrophils; assay: TNF-stimulated IL-8 production from human neutrophils; details: read-out: IC50, TNF-stimulated IL-8 production from human neutrophils, broad range of data upon multiple runs
Method: The effect of test compounds on TNF-stimulated IL8 production by human neutrophils is measured as follows. Neutrophils are prepared from blood obtained from consenting donors, using standard methods. Blood is collected in heparinized syringes and layered over histopaque (30 ml/20 ml). Following centrifugation, the red cell pellet is resuspended in PBS and purified over a dextran gradient. Red blood cells are lysed with water for 40 sec, remaining granulocytes collected by centrifugation and resuspended at 1.5×10^6 cells/ml. Cells are added (0.5-1 ml) to 48 well plates already containing compound at 1000× final concentration in neat DMSO or 10% DMSO in RPMI1640 with 10% FBS. TNF (final concentration 100 ng/ml) is used as the stimulus. Cells incubated for approximately 20 hrs at 37° C., 5% CO2. Levels of IL-8 in the cell free supernatant are determined by sandwich ELISA, and inhibition relative to a control with DMPO but no compound is calculated.

T1 sequence (Q16539 whole entry): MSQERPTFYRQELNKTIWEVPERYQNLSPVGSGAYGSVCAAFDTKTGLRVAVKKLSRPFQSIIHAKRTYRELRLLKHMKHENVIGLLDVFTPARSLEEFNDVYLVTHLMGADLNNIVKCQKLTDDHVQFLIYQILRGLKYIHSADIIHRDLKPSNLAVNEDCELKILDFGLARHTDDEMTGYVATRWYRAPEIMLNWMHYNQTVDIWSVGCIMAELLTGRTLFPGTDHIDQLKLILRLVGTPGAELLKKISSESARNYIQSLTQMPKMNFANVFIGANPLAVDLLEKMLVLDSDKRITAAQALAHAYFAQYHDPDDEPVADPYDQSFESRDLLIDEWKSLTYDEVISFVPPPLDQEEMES

Structure (SMILES) | pIC50, TR-FRET kinase assay (Recombinant human p38α) | inhibition of neutrophilia (neutrophil levels in airway lavage relative to no compound controls) [1] | IC50 [2] [nM]
CCN(CC)CCCNc1nc(-c2ccc(C(=O)O)cc2)c2ccc(=O)n(-c3c(F)cccc3F)c2n1 [Example 188(a), 4-[2-{[3-(diethylamino)propyl]amino}-8-(2,6-difluorophenyl)-7-oxo-7,8-dihydropyrido[2,3-d]pyrimidin-4-yl]benzoic acid] | less than 4.8 | – | –
CCN(CC)CCCNc1nc(-c2cc(C(=O)N(C)C)ccc2C)c2ccc(=O)n(-c3c(F)cccc3F)c2n1 [Example 120, 3-[2-{[3-(diethylamino)propyl]amino}-8-(2,6-difluorophenyl)-7-oxo-7,8-dihydropyrido[2,3-d]pyrimidin-4-yl]-N,N,4-trimethylbenzamide] | – | statistically nonsignificant inhibition of neutrophilia; also recorded: inactive | > 1
